Reference: US20240002374A1, “5-MEMBERED HETEROARYLAMINOSULFONAMIDES FOR TREATING CONDITIONS MEDIATED BY DEFICIENT CFTR ACTIVITY” (Genzyme Corporation, priority 2019, published 2024)

The compounds below were run against T1, CFTR (primary human bronchial epithelial cells from a ΔF508 homozygous CF donor, CF-HBE cells) (Homo sapiens, UniProt P13569, DEL508-508) (assay: TECC24 recording of CFTR-mediated transepithelial chloride transport (TECC24 AUC fold over DMSO @ 3 μM)). Settings: 3 uM test agent; CF-HBE cells (ΔF508 homozygous) incubated 48 h; ratio of test agent AUC of forskolin-stimulated IEQ to vehicle (DMSO) AUC.
T1 construct: Primary human bronchial epithelial cells from a ΔF508 homozygous CF donor; host or cells: primary human bronchial epithelial cells (CF-HBE) from a ΔF508 homozygous CF donor
Assay type: cell-based
Protocol: Example 510: TECC24 AUC Fold Over DMSO @ 3 μM
The effects of a test agent on CFTR-mediated transepithelial chloride transport was measured using TECC24 recording analysis. Test agents were solubilized in DMSO. Solubilized test agents were mixed with incubation medium containing DMEM/F12, Ultroser G (2%; Crescent Chemical, catalog #67042), Hyclone Fetal Clone H (2%; GE Healthcare, catalog #SH30066.02), bovine brain extract (0.25%; Lonza, catalog #CC-4098), insulin (2.5 μg/mL), IL-13 (10 ng/mL), hydrocortisone (20 nM), transferrin (2.5 μg/mL), triiodothyronine (500 nM), ethanolamine (250 nM), epinephrine (1.5 μM), phosphoethanolamine (250 nM), and retinoic acid (10 nM). Primary human bronchial epithelial cells from a ΔF508 homozygous CF donor (CF-HBE cells; from University of North Carolina Cystic Fibrosis Tissue Procurement Center), grown on Transwell HTS 24-well cell culture inserts (Costar, catalog #3378), were exposed to test agents or controls dissolved in incubation medium. The CF-HBE cells were cultured at 36.5° C. for 48 h before TECC24 recordings were performed in the presence or absence of test agent, a positive control or vehicle (DMSO).
Following incubation, the transwell cell culture inserts containing the test agent or control-treated CF-HBE cells were loaded onto a TECC24 apparatus (TECC v7 or MTECC v2; EP Design) to record the transepithelial voltage (VT) and resistance (TEER) using 4 AgCl electrodes per well configured in current-clamp mode. The apical and basolateral bath solutions both contained (in mM) 140 NaCl, 5 KCl, 2 CaCl2), 1 MgCl2, 10 Hepes, and 10 glucose (adjusted to pH 7.4 with NaOH) […]. To inhibit basal Na+ absorption, the ENaC inhibitor benzamil (10 μM) was added to the bath. Then, the adenylate cyclase activator, forskolin (10 μM), was added to the bath to activate CFTR. The forskolin-stimulated Cl− transport was halted by addition of bumetanide (20 μM), an inhibitor of the basolateral chloride co-transporter NKCC1, to the bath to confirm that the detected signal was chloride dependent. VT and TEER recordings were digitally acquired at routine intervals using TECC or MTECC software (EP Design). VT and TEER were transformed into equivalent transepithelial Cl− current (IEQ), and the Area Under the Curve (AUC) of the IEQ time course between forskolin and bumetanide addition is generated using Excel (Microsoft). Efficacy is expressed as the ratio of the test agent AUC divided by vehicle AUC. EC50s based on AUC are generated using the non-linear regression log(agonist) vs. response function in Prism software (GraphPad) with Hill Slope fixed=1.
If a test agent increased the AUC of the forskolin-stimulated IEQ relative to vehicle in CF-HBE cells, and this increase was inhibited by bumetanide, then the test agent was considered a CFTR corrector.

T1 sequence (P13569 with tags, fused parts or gaps DEL508-508): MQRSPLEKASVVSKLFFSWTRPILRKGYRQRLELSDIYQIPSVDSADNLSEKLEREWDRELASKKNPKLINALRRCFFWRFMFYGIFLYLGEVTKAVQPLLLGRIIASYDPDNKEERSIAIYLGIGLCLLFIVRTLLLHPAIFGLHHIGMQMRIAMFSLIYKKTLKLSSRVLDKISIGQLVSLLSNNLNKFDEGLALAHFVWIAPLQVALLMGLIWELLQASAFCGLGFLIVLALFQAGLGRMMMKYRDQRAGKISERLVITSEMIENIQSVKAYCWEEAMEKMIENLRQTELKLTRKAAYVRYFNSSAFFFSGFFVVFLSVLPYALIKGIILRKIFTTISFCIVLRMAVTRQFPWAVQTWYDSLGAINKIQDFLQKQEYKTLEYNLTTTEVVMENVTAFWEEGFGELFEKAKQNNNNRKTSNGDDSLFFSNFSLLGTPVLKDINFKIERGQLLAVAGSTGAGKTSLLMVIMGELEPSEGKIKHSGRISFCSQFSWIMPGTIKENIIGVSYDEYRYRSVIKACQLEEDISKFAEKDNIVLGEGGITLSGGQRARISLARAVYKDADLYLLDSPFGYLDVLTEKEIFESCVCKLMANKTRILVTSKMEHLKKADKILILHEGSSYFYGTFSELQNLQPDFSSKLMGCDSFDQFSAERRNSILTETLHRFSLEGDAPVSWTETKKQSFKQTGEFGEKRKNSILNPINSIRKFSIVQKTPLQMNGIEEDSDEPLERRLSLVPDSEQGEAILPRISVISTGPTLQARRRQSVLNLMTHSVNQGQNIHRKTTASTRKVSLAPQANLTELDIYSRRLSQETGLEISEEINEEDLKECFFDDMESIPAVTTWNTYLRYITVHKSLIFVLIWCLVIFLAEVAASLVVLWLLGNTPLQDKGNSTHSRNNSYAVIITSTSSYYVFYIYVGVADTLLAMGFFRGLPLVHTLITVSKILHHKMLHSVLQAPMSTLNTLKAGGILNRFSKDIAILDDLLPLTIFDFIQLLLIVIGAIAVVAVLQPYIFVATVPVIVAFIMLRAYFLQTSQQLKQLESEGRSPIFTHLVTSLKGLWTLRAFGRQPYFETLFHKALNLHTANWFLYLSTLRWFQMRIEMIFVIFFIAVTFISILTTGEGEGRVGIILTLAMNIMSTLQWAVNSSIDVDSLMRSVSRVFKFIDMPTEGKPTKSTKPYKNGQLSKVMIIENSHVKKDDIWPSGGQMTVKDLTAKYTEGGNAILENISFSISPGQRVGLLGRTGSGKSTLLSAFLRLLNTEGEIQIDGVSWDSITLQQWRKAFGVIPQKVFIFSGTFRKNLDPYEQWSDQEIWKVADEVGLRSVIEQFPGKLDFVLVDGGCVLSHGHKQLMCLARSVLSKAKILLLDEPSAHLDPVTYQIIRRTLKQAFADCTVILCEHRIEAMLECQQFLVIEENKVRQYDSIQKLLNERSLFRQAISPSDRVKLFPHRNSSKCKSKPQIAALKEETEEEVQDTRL

| Structure (SMILES) | TECC AUC vs. DMSO @ 3 uM |
| --- | --- |
| CC(C)Oc1ccccc1-c1nc(NS(=O)(=O)c2ccccc2)sc1-c1cccc(OCC(C)(C)C)c1 [Example 4, N-(4-(2-Isopropoxyphenyl)-5-(3-(neopentyloxy)phenyl)thiazol-2-yl)benzenesulfonamide] | B (“B” refers to AUC 2-5) |
| CC(Oc1cc(F)ccc1-c1nc(NS(=O)(=O)c2ccn(C)n2)sc1-c1cc(F)cc(OCCC(C)(C)C)c1)C(F)(F)F (stereo not shown) [Example 5, N-(5-(3-(3,3-Dimethylbutoxy)-5-fluorophenyl)-4-(4-fluoro-2-((1,1,1-trifluoropropan-2-yl)oxy)phenyl)thiazol-2-yl)-1-methyl-1H-pyrazole-3-sulfonamide] | B (“B” refers to AUC 2-5) |
| Cc1cccc(C)c1-c1nc(NS(=O)(=O)c2cn(C)nc2C)sc1-c1cccc(OCC(C)(C)C(F)(F)F)c1 [Example 6, N-(4-(2,6-Dimethylphenyl)-5-(3-(3,3,3-trifluoro-2,2-dimethylpropoxy)phenyl)thiazol-2-yl)-1,3-dimethyl-1H-pyrazole-4-sulfonamide] | B (“B” refers to AUC 2-5) |
| Cc1cccc(C)c1-c1nc(NS(=O)(=O)c2cccc(N)c2)sc1-c1cc(F)cc(OCCC(C)(C)C)c1 [Example 7, 3-Amino-N-(5-(3-(3,3-dimethylbutoxy)-5-fluorophenyl)-4-(2,6-dimethylphenyl)thiazol-2-yl)benzenesulfonamide] | A (“A” refers to AUC > 5) |
| CC(C)(C)CCOc1cccc(-c2sc(NS(=O)(=O)c3cccc(N)c3)nc2-c2ccccc2C(F)(F)F)c1 [Example 8, 3-Amino-N-[5-[3-(3,3-dimethylbutoxy)phenyl]-4-[2-(trifluoromethyl)phenyl]thiazol-2-yl]benzenesulfonamide] | A (“A” refers to AUC > 5) |
| CC(C)(C)CCOc1cc(F)cc(-c2sc(NS(=O)(=O)c3cccc(N)c3)nc2-c2ccc(C(F)(F)F)cc2)c1 [Example 9, 3-Amino-N-(5-(3-(3,3-dimethylbutoxy)-5-fluorophenyl)-4-(4-(trifluoromethyl)phenyl)thiazol-2-yl)benzenesulfonamide] | B (“B” refers to AUC 2-5) |
| CC(C)(C)CCOc1cccc(-c2sc(NS(=O)(=O)c3cccc(N)c3)nc2-c2ccc(C(F)(F)F)cc2)c1 [Example 10, 3-Amino-N-(5-(3-(3,3-dimethylbutoxy)phenyl)-4-(4-(trifluoromethyl)phenyl)thiazol-2-yl)benzenesulfonamide] | A (“A” refers to AUC > 5) |
| CC(C)c1ccccc1-c1nc(NS(=O)(=O)c2cccc(N)c2)sc1-c1cc(F)cc(OCCC(C)(C)C)c1 [Example 11, 3-Amino-N-(5-(3-(3,3-dimethylbutoxy)-5-fluorophenyl)-4-(2-isopropylphenyl)thiazol-2-yl)benzenesulfonamide] | A (“A” refers to AUC > 5) |
| Cc1cccc(C)c1-c1nc(NS(=O)(=O)c2cc(N)ccc2F)sc1-c1ccc(F)c(OCC(C)(C)C(F)(F)F)c1 [Example 12, 5-Amino-N-(4-(2,6-dimethylphenyl)-5-(4-fluoro-3-(3,3,3-trifluoro-2,2-dimethylpropoxy)phenyl)thiazol-2-yl)-2-fluorobenzenesulfonamide] | A (“A” refers to AUC > 5) |
| Cc1cccc(C)c1-c1nc(NS(=O)(=O)c2cccc(NC3CC(C)(O)C3)c2)sc1-c1cccc(OCC(C)(C)C(F)(F)F)c1 (stereo not shown) [Example 13, N-(4-(2,6-Dimethylphenyl)-5-(3-(3,3,3-trifluoro-2,2-dimethylpropoxy)phenyl)thiazol-2-yl)-3-((3-hydroxy-3-methylcyclobutyl)amino)benzenesulfonamide] | A (“A” refers to AUC > 5) |
| Cc1cccc(C(F)(F)F)c1-c1nc(NS(=O)(=O)c2cccc(N)c2)sc1-c1cccc(OCCC(C)(C)C)c1 [Example 14, 3-Amino-N-(5-(3-(3,3-dimethylbutoxy)phenyl)-4-(2-methyl-6-(trifluoromethyl)phenyl)thiazol-2-yl)benzenesulfonamide] | A (“A” refers to AUC > 5) |
| Cc1cccc(C(F)(F)F)c1-c1nc(NS(=O)(=O)c2ccnc(N)c2)sc1-c1cc(F)cc(OCCC(C)(C)C)c1 [Example 15, 2-Amino-N-(5-(3-(3,3-dimethylbutoxy)-5-fluorophenyl)-4-(2-methyl-6-(trifluoromethyl)phenyl)thiazol-2-yl)pyridine-4-sulfonamide] | A (“A” refers to AUC > 5) |
| Cc1cccc(C)c1-c1nc(NS(=O)(=O)c2ccccc2)sc1-c1cccc(OCCC(C)(C)C)c1 [Example 16, N-(5-(3-(3,3-Dimethylbutoxy)phenyl)-4-(2,6-dimethylphenyl)thiazol-2-yl)benzenesulfonamide] | A (“A” refers to AUC > 5) |
| Cc1cccc(C)c1-c1nc(NS(=O)(=O)c2ccccc2)sc1-c1cc(F)cc(OCCC(C)(C)C)c1 [Example 17, N-(5-(3-(3,3-Dimethylbutoxy)-5-fluorophenyl)-4-(2,6-dimethylphenyl)thiazol-2-yl)benzenesulfonamide] | B (“B” refers to AUC 2-5) |
| CC(C)c1ccccc1-c1nc(NS(=O)(=O)c2cccc(N)c2)sc1-c1cccc(OCCC(C)(C)C)c1 [Example 18, 3-Amino-N-(5-(3-(3,3-dimethylbutoxy)phenyl)-4-(2-isopropylphenyl)thiazol-2-yl)benzenesulfonamide] | A (“A” refers to AUC > 5) |
| CC(C)(C)CCOc1cccc(-c2sc(NS(=O)(=O)c3cccc(NC(=O)C4CC4)c3)nc2-c2ccccc2C(F)(F)F)c1 [Example 19, N-(3-(N-(5-(3-(3,3-Dimethylbutoxy)phenyl)-4-(2-(trifluoromethyl)phenyl)thiazol-2-yl)sulfamoyl)phenyl)cyclopropanecarboxamide] | A (“A” refers to AUC > 5) |
| CC(C)(C)CCOc1cccc(-c2sc(NS(=O)(=O)c3cccc(NC(=O)C4(F)CC4)c3)nc2-c2ccccc2C(F)(F)F)c1 [Example 20, N-(3-(N-(5-(3-(3,3-Dimethylbutoxy)phenyl)-4-(2-(trifluoromethyl)phenyl)thiazol-2-yl)sulfamoyl)phenyl)-1-fluorocyclopropane-1-carboxamide] | A (“A” refers to AUC > 5) |
| CNc1cccc(S(=O)(=O)Nc2nc(-c3ccccc3C(C)C)c(-c3cccc(OCCC(C)(C)C)c3)s2)c1 [Example 21, N-(5-(3-(3,3-Dimethylbutoxy)phenyl)-4-(2-isopropylphenyl)thiazol-2-yl)-3-(methylamino)benzenesulfonamide] | A (“A” refers to AUC > 5) |
| Cc1cccc(C)c1-c1nc(NS(=O)(=O)c2cccc(C(F)F)c2)sc1-c1cccc(OCCC(C)(C)C)c1 [Example 22, 3-(Difluoromethyl)-N-(5-(3-(3,3-dimethylbutoxy)phenyl)-4-(2,6-dimethylphenyl)thiazol-2-yl)benzenesulfonamide] | A (“A” refers to AUC > 5) |
| CC(C)c1ccccc1-c1nc(NS(=O)(=O)c2cccc(N)c2F)sc1-c1cccc(OCC(F)(F)C(C)(C)C)c1 [Example 23, 3-Amino-N-(5-(3-(2,2-difluoro-3,3-dimethylbutoxy)phenyl)-4-(2-isopropylphenyl)thiazol-2-yl)-2-fluorobenzenesulfonamide] | A (“A” refers to AUC > 5) |
| CC(C)c1ccccc1-c1nc(NS(=O)(=O)c2cccc(NC3CC(C)(O)C3)c2)sc1-c1ccc(F)c(OCC(F)(F)C(C)(C)C)c1 (stereo not shown) [Example 24, N-(5-(3-(2,2-Difluoro-3,3-dimethylbutoxy)-4-fluorophenyl)-4-(2-isopropylphenyl)thiazol-2-yl)-3-((3-hydroxy-3-methylcyclobutyl)amino)benzenesulfonamide] | A (“A” refers to AUC > 5) |
| Cc1cccc(C)c1-c1nc(NS(=O)(=O)c2cccc(N)c2F)sc1-c1cc(F)cc(OCCC(C)(C)C)c1 [Example 25, 3-Amino-N-(5-(3-(3,3-dimethylbutoxy)-5-fluorophenyl)-4-(2,6-dimethylphenyl)thiazol-2-yl)-2-fluorobenzenesulfonamide] | A (“A” refers to AUC > 5) |
